Results on eight molecules are retold here after article PMC8252765, “Human Oxygenase Variants Employing a Single Protein Fe^II Ligand Are Catalytically Active” (Angewandte Chemie (International Ed. in English), 2021).

Substitutions are numbered along the chain they refer to. Like-named read-outs stand apart in the source and are kept apart here.

The target of test [1] is T1, H725A His6-AspH315-758 (Homo sapiens, UniProt Q12797, H725A).
T1 construct: containing H679A or H725A His6-AspH315-758 variant (0.2 μM); made in house; host or cells: E. coli BL21 (DE3), pET-28a(+)
T1 sequence (Q12797 315-758 H725A): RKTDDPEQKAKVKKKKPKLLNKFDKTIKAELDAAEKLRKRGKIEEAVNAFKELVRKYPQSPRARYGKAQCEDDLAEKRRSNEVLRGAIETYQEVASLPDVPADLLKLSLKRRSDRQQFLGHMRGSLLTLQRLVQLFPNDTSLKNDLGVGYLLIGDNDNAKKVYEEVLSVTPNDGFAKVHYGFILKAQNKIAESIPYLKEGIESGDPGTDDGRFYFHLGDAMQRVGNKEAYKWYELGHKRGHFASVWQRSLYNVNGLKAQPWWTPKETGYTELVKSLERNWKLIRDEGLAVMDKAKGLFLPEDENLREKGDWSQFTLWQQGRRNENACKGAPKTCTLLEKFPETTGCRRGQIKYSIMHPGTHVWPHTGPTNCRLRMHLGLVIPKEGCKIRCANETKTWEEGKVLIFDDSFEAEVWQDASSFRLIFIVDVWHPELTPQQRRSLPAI
The test is described as follows: Steady-state kinetics of H725A AspH by SPE-MS. Conditions: H725A AspH 0.2 μM, parameter for the varied (co)substrate (label), 25 mM HEPES pH 7.5, n=3. In kind it is biochemical. The method, then: page 11: Supporting Figure S6. Kinetic parameters for […] AspH (continues on the following page). Turnover numbers (kapp or k ) and Michaelis constants (Kapp or K ) of the […] AspH-catalysed hydroxylation of […] peptide by SPE- MS (SPE-MS parameters are given in Section 2 of the Supporting Information). […] HEPES (pH 7.5, 20° C). […] Data are shown as the mean average of three independent runs (n = 3; mean ± standard deviation, SD). Turnover numbers (kapp or k ) were calculated from the maximum velocities (vapp or v ) values obtained, cat cat max max assuming ideal active site availability as supported by a reported active site titration of wt AspH.[4] (a) Time course of the […] AspH for Fe(II) in the absence of LAA; (c) Kapp of […] AspH for Fe(II) in the absence m of LAA. (d) Time course of the […] AspH for Fe(II) in the presence of LAA; (f) Kapp of […] AspH for Fe(II) in the m presence of LAA. […] AspH variant-catalysed hydroxylation reaction of […] (k) hydroxylation rates used to determine kinetic parameters of […] AspH for […]. […] AspH for […] peptide substrate. […]

The target of test [2] is T2, H679A His6-AspH315-758 (Homo sapiens, UniProt Q12797, H679A).
T2 construct: containing H679A or H725A His6-AspH315-758 variant (0.2 μM); made in house; host or cells: E. coli BL21 (DE3), pET-28a(+)
T2 sequence (Q12797 315-758 H679A): T1 sequence (Q12797 315-758 H725A) with H365A, A411H
The test is described as follows: Steady-state kinetics of H679A AspH by SPE-MS. Conditions: H679A AspH 0.2 μM, parameter for the varied (co)substrate (label), 25 mM HEPES pH 7.5, n=3. In kind it is biochemical. The method, then: Supporting Figure S5. […] Turnover […]
numbers (kapp or k ) and Michaelis constants (Kapp or K ) of the H679A AspH variant were determined in […]
MS (SPE-MS parameters are given i n Section 2 of the Supporting Information ). Conditions: 0.2 μM H679A His6- […]
HEPES (pH 7.5, 20° C). Measurement times were normalized to the first sample injection analysed after the […]
Data are shown as the mean average of three independent runs (n = 3; mean ± standard deviation, SD).
Turnover numbers (kapp or k ) were calculated from the maximum velocities (vapp or v ) values obtained, […]
assuming ideal active site availability as supported by a reported active site titration of wt AspH.[4] […]
substrate in the absence of LAA for the shown Fe(II) concentrations (conditions: 0.2 μM H679A His6-AspH315- […]
substrate in the presence of LAA for the shown Fe(II) concentrations (conditions: 0.2 μM H679A His6-AspH315- […]

Test [3] has as its system γ‐butyrobetaine hydroxylase. On the set-up: method as in PMID 22730246. The conditions noted are these: reported value; cited from earlier work.
The target of test [4] is T2, H679A His6-AspH315-758. The test is described as follows: H679A AspH variant SPE-MS inhibition assay. In kind it is biochemical.
Test [5] addresses T1, H725A His6-AspH315-758. The test is described as follows: H725A AspH variant SPE-MS inhibition assay. In kind it is biochemical.
Test [6] relates to wt AspH. Conditions: cited from earlier work.
Test [7] concerns T3, wt His6-AspH315-758.
T3 construct: Conditions: 0.1 μM wt His6-AspH315-758 using; His6 (N); made in house
As to the kind of experiment: Steady-state kinetics of wt AspH by SPE-MS. In kind it is biochemical, human. The conditions noted are these: wt AspH 0.1 μM, parameter for the varied (co)substrate (label), 25 mM HEPES pH 7.5, 50 mM NaCl, n=3. The method, then: Supporting Figure S4. Kinetic parameters for wt AspH (continues on the following page). Turnover numbers […]
ammonium iron(II) sulfate hexahydrate (FAS, (NH 4)2Fe(SO 4)2·6H2O), both in the presence and absence of L - ascorbic acid (LAA ) monitoring the AspH-catalysed hydroxylation of the hFX-EGFD186-124-4Ser peptide (Supporting Figure S2a) by SPE-MS (SPE-MS parameters are given in Section 2 of the Supporting Information).
Conditions: 0.1 μM wt His6-AspH315-758 using
C; note, to increase enzyme activity, 50 mM NaCl was added to the reaction buffer). Measurement times were normalized to the first sample injection analysed after the addition of the Enzyme Mixture to the Substrate Mixture […]
Data are shown as the mean average of three independent runs (n = 3; mean ± standard deviation, SD). Turnover numbers (kapp) were calculated from the […]
maximum velocities (vapp ) values obtained, assuming ideal active site availability as supported by a reported […]
active site titration of wt AspH.[4]
(a) Time course of the wt AspH-catalysed hydroxylation reaction of the hFX-EGFD186-124-4Ser peptide substrate […]
and 4.0 μM hFX-EGFD1 86-124-4Ser); (b) hydroxylation rates used to determine kinetic parameters of wt AspH for Fe(II) in the absence of LAA; ( c) Kapp of wt AspH for Fe(II) in the absence of LAA.
(d) Time course of the wt AspH-catalysed hydroxylation reaction of the hFX-EGFD186-124-4Ser peptide substrate in the presence of LAA for the shown Fe(II) concentrations (conditions: 0.1 μM wt His6-AspH315-758, 100 μM […]
parameters of wt AspH for Fe(II) in the presence of LAA; (f) Kapp of wt AspH for Fe(II) in the presence of LAA. […]
(g) Time course of the wt AspH-catalysed hydroxylation reaction of the hFX-EGFD186-124-4Ser peptide substrate […]
(1 picture or pasted object on this page, not shown here)

Setting [8] is: 0.1 μM H679A AspH, 4.0 μM hFX-EGFD1_86-124-4Ser, 110 μM 2OG, 4 μM Fe^II, SPE-MS, n=2, read-out: IC50.
Where [9] appears, read: 0.1 μM H725A AspH, 4.0 μM hFX-EGFD1_86-124-4Ser, 215 μM 2OG, 10 μM Fe^II, SPE-MS, n=2, read-out: IC50.

Turning to `O=C(O)CCC(=O)C(=O)O` [2OG, 2‐oxoglutarate], the Kmapp in test [1] (with LAA (400 μM)) stood at 211 ± 65 µM; in test [2] (with LAA (400 μM)), 109 ± 20 µM. For the same molecule, the kcatapp in test [1] (with LAA (400 μM)) is 0.08 ± 0.01 s⁻¹; in test [2] (with LAA (400 μM)), 0.18 ± 0.01 s⁻¹. For the same molecule, the “2OG Kmapp‐value” in test [3] is 150 to 470 µM.
As to `[Cl-].[Cl-].[Co+2]` [CoCl2], the half-inhibitory concentration (IC50) – broadly, the concentration needed to halve the response being measured – in test [4] (n=2, read-out: IC50) was 1.5 ± 0.2 µM; in test [5] (n=2, read-out: IC50) it was 3 ± 0.5 µM; in test [6] it was 0.4 ± 0.2 µM.
Consider `CC(=O)[O-].CC(=O)[O-].[Zn+2]` [Zn(OAc)2], for which the 50% inhibitory concentration (IC50) in test [4] (setting [8]) is 0.16 ± 0.01 µM; in test [5] (setting [9]), 0.16 ± 0.01 µM; in test [6] (wt AspH, 2 μM Fe^II, 3 μM 2OG), 0.05 ± 0.01 µM.
On to `[Cl][Mn][Cl]` [MnCl2], for which the IC50 in test [4] (setting [8]) was 23.1 ± 8.6 µM; in test [5] (setting [9]), greater than 40 µM; in test [6] (wt AspH, 2 μM Fe^II, 3 μM 2OG) it was 5.1 ± 1.1 µM.
Turning to “ammonium iron(II) sulfate hexahydrate [Fe^II]”, the Kmapp was found to be 8.1 ± 1.8 µM in test [1] (with LAA (400 μM)); 12.3 ± 3.0 µM in test [1] (without LAA); 4.3 ± 1.6 µM in test [7] (with LAA (100 μM)); 7.2 ± 2.6 µM in test [7] (without LAA); 2.7 ± 0.5 µM in test [2] (with LAA (400 μM)); 4.4 ± 0.8 µM in test [2] (without LAA). In addition, the kcatapp in test [1] (with LAA (400 μM)) came to 0.10 ± 0.01 s⁻¹; in test [1] (without LAA) it was 0.09 ± 0.01 s⁻¹; in test [7] (with LAA (100 μM)), 0.27 ± 0.04 s⁻¹; in test [7] (without LAA, hFX-EGFD1 peptide hydroxylation), 0.24 ± 0.04 s⁻¹; in test [2] (with LAA (400 μM)) it was 0.19 ± 0.01 s⁻¹; in test [2] (without LAA), 0.18 ± 0.01 s⁻¹.
With `O=C(O)CNC(=O)C(=O)O` [N‐oxalyl‐glycine (NOG), N‐oxalylglycine], the IC50 result in test [4] (0.1 μM H679A AspH, 4.0 μM hFX-EGFD1_86-124-4Ser, 110 μM 2OG, 4 μM Fe^II, SPE-MS, n=2) was “inactive”; in test [4] (0.1 μM H679A AspH, 4.0 μM hFX-EGFD1_86-124-4Ser, 110 μM 2OG, 4 μM Fe^II, SPE-MS, n=2, listed as NOG) it was “does not apparently inhibit”; in test [5] (0.1 μM H725A AspH, 4.0 μM hFX-EGFD1_86-124-4Ser, 215 μM 2OG, 10 μM Fe^II, SPE-MS, n=2), “inactive”; in test [5] (0.1 μM H725A AspH, 4.0 μM hFX-EGFD1_86-124-4Ser, 215 μM 2OG, 10 μM Fe^II, SPE-MS, n=2, listed as NOG), “does not apparently inhibit”; in test [6] it was 1.1 ± 0.3 µM.
On to `O=S(=O)([O-])[O-].[Ni+2]` [NiSO4], for which the half-maximal inhibitory concentration (IC50) in test [4] (read-out: IC50) was 2.7 ± 0.4 µM; in test [5] (read-out: IC50) it was 1.8 ± 0.4 µM; in test [6], 0.17 ± 0.08 µM.
With `O=C(O)c1ccnc(C(=O)O)c1` [pyridine‐2,4‐dicarboxylic acid], the IC50 in test [4] (read-out: IC50) was 0.13 ± 0.01 µM; in test [5] (read-out: IC50) it was 11.2 ± 1.4 µM; in test [6] (wt AspH, 2 μM Fe^II, 3 μM 2OG) it was 0.03 ± 0.01 µM; in test [6] (wt AspH, at 3 μM 2OG), roughly 0.03 µM; in test [6] (wt AspH, at 200 μM 2OG) it was roughly 0.1 µM.
